From patent US20120302609A1, “Pyrazolines for the Modulation of PKM2” (Dynamix Pharmaceuticals LTD., priority 2011, published 2012) come the findings set out here.

Data set [1] is described as follows: HT-29 xenograft mouse model, safety (body weight, observations). The class given is in vivo. The method, then:
This example illustrates the efficacy and safety of a compound according to embodiments of the present invention, i.e., Compound 1A, using a HT-29 xenograft mouse model (a colorectal cancer model).
All the procedures related to animal handling, care, and the treatment in this study were performed according to approved guidelines a following the guidance of the Association for Assessment and Accreditation of Laboratory Animal Care (AAALAC). At the time of routine monitoring, the animals were checked for any effects of tumor growth and treatments on normal behavior such as mobility, food and water consumption (by looking only), body weight gain/loss (body weights were measured thrice weekly), eye/hair matting and any other abnormal effect. Death and observed clinical signs were recorded on the basis of the numbers of animals within each subset.
• a. Blood samples were collected after the 1st dose and the 23rd dose. Collected blood samples from 2 animals in each group at the designated timepoints post dose. The detailed timepoints are as below: • For the groups with QD dosing schedule: 1, 4, 8 and 24 hr post dose. • For the groups with Q2D dosing schedule: 1, 8, 24 and 48 hr post dose. • b. 20 μl blood was collected via tail vein in EDTA-2K tube (0.5 ml tube containing 0.4 μl 15% EDTA-2K. 60u1 double distilled water was added into the tube and mixed well.

Data set [2] has as its system A549 (Non-small cell lung carcinoma cell line). The experiment in a line: Cell proliferation, Assay Protocol I (CellTiter-Glo). It is filed as cell-based. As to conditions: Homo sapiens. How it is done: (§1) Growth inhibitory activity against the human tumor cell lines was determined using Promega's CellTiter-Glo® assay. The cell lines of interest were placed in a 96-well microculture plate (Costar® white, flat bottom #3917) in a total volume of 90 μL/well. After 24 hours of incubation in a humidified incubator at 37° C. with 5% CO2 and 95% air, 10 μL of serially diluted test compounds in growth medium were added to each well. After 96 total hours of culture in a CO2 incubator, the plated cells and CellTiter-Glo® (Promega # G7571) reagents were brought to room temperature to equilibrate for 30 minutes. 100 μL of CellTiter-Glo® reagent was added to each well. The plate was shaken for 2 minutes and then left to equilibrate for 10 minutes before reading luminescence on the Tecan GENios microplate reader.
(§2) Percent inhibition of cell growth was calculated relative to untreated control wells. All tests were performed in duplicate for each concentration level. The IC50 value for the test compounds was estimated using Prism 3.03 by curve-fitting the data.

Data set [3] concerns HepG2 (Hepatocellular cancer cell line). The data set is described as above. The class given is cell-based. As to conditions: Homo sapiens. The method, then: as §1, §2
In data set [4] the test system is HT-29 (Colorectal cancer cell line). Described as above. The following applies: Homo sapiens. The class given is cell-based. The method, then:
as §1, §2

Data set [5] deals with H1299 Human Non-Small Cell Lung Carcinoma. Put plainly: H1299 human non-small cell lung carcinoma nude mouse xenograft model, tumor growth delay. The class given is in vivo, mice. How it is done:
The animals were fed ad libitum water (reverse osmosis, 1 ppm Cl) and NIH 31 Modified and Irradiated Lab Diet® consisting of 18.0% crude protein, 5.0% crude fat, and 5.0% crude fiber. The mice were housed on irradiated Enrich-o′ Cobs™ Laboratory Animal Bedding in static microisolators on a 12-hour light cycle at 20-22° C. (68-72° F.) and 40-60% humidity.
H1299 (NCI-H1299) NSCLC cells were obtained from the American Type Culture Collection, which reports the cell line to have originated from a lymph node metastasis and to lack p53 expression. The cell line was maintained as exponentially growing cultures in RPMI-1640 medium supplemented with 10% fetal bovine serum, 2 mM glutamine, 100 units/mL penicillin G sodium, 100 μg/mL streptomycin sulfate, 25 μg/mL gentamicin, 10 mM HEPES, and 0.075% sodium bicarbonate. The tumor cells were cultured in tissue culture flasks in a humidified incubator at 37° C., in an atmosphere of 5% CO2 and 95% air.
H1299 tumor cells were harvested during log phase growth and suspended in cold PBS. Each nude mouse was inoculated subcutaneously in the right flank with 0.2 mL of the cell suspension (1×10^7 cells). The tumors were periodically calipered in two dimensions to monitor size as the mean volume approached the desired 90-130 mm^3 range. Tumor size was calculated by the following formula:
where w=width and l=length, in mm, of the tumor. Tumor weight may be estimated with the assumption that 1 mg is equivalent to 1 mm^3 of tumor volume.
Compound 13A (MW 467.51, code-named XT26) was provided as a powder stored at −20° C., and protected from light during storage and handling. Dosing suspensions, in 0.5% carboxymethyl cellulose and 1% Tween® 80 in deionized water (Vehicle), were prepared fresh for each dose, and kept at 4° C. post formulation. Gemcitabine (Gemzar®, Lilly, 38 mg/mL, Lot # A866884A) was stored at room temperature. A fresh 12 mg/mL gemcitabine dosing solution was prepared on each treatment day by diluting an aliquot of the stock solution with saline.
Dosing began on D1 in four groups of mice (n=12/group in Groups 1, 3, and 4; n=6 in Group 2). XT26 and its vehicle were administered intraperitoneally (i.p.) twice daily for 28 days (b.i.d.×28), starting with the p.m. dose on D1 and ending with the a.m. dose on D29. Gemcitabine was administered i.p. once daily at three-day intervals for four doses (q3d×4). In all groups, the dosing volume of 10 ml/kg (0.2 ml/20 g mouse) was scaled to the weight of each individual animal, as measured twice weekly.
Group 1 mice received the XT26 vehicle b.i.d.×28, and served as the controls for the study. Group 2 received gemcitabine at 120 mg/kg. Group 3 was to receive XT26 at 100 mg/kg b.i.d.×28; on D21, four mice (Animals 1, 3, 4, and 5) erroneously received 200 mg/kg XT26 for their a.m. dose. […] Group 4 dosing at 200 mg/kg resumed on D17 on a qd (once daily)×13 dosing schedule. Because of a scheduling error, the D19 dose for Group 4 mice was omitted; qd dosing occurred on Days 17, 18, and 20-28.
Tumors were calipered twice weekly for the duration of the study, and each animal was euthanized when its neoplasm reached the predetermined endpoint volume (1200 mm^3) or at the end of the study, whichever came first. Animals that exited the study for tumor growth were documented as euthanized for tumor progression (TP), with the date of euthanasia. The time to endpoint (TTE) for each mouse was calculated by the following equation: […]
where TTE is expressed in days, endpoint volume is expressed in mm^3, b is the intercept, and m is the slope of the line obtained by linear regression of a log-transformed tumor growth data set.
In general terms: A xenograft is tissue or cells of one species grown in another, often human tumour cells in immunodeficient mice.

The mark [6] stands for this setting: Group 1 vs 3: XT26 ip bid × 28, 100 mg/kg.
Setting [7] is: XT26 200 mg/kg ip bid × 8, then qd.
Where [8] appears, read: XT26 200 mg/kg ip bid × 8, then qd on Days 17, 18, 20-28.

As a reminder, the pIC50 is the negative decadic logarithm of the IC50, by convention in mol/L. A low value points to a large IC50.

pIC50: −log10 of the molar value. Several values for one entry are separate records, joined by “and”; a condition that tells them apart may be missing. Equal entries are not always repeated.

As for `CCS(=O)(=O)Nc1ccc(C2=NN(C(C)=O)C(c3ccc(OC)cc3)C2)cc1` (racemic) [Compound 1A, N-(4-(1-acetyl-5-(4-methoxyphenyl)-4,5-dihydro-1H-pyrazol-3-yl)phenyl)ethanesulfonamide], in data set [1] (all the treatment groups (100-400 mg/kg i.p.)), the body weight loss entry was “No significant body weight loss”. Further, the “in vivo safety profile” value in data set [1] (highest dosage level 400 mg/kg QD) is “good in vivo safety profile”. Besides, the pIC50 in data set [2] is more than 4.40; in data set [3], 4.00 to 4.40; in data set [4], less than 4.00.
`COc1ccc([C@@H]2CC(c3ccc(NS(=O)(=O)c4ccc(F)cc4)cc3)=NN2C(C)=O)cc1` [Compound 13A, (S)—N-(4-(1-acetyl-5-(4-methoxyphenyl)-4,5-dihydro-1H-pyrazol-3-yl)phenyl)-4-fluorobenzenesulfonamide]: in data set [5] (setting [6]), the “Are the survival curves sig different?” value is recorded as “Yes” and the “Hazard Ratio” value turned out to be 2.315. The “Median survival Ratio” value in data set [5] (Group 1 vs 3: vehicle / XT26 100 mg/kg) came to 0.8022. Besides, in data set [5] (XT26 100 mg/kg ip bid × 28), the “% TGD” value was determined as 24%, the “Regressions CR” value stood at 0, the “Regressions PR” value turned out to be 0 and the “Regressions TFS” value was determined as 0. The “Median TTE” value in data set [5] (XT26 100 mg/kg ip bid × 28, endpoint 1200 mm^3, 28-day study) was found to be 23.2 days. Further, the “MTV (n) Day 28” value in data set [5] (XT26 100 mg/kg ip bid × 28, median tumor volume of animals not at endpoint (n in brackets), 100 mg/kg) was 1080 mm^3 and 1080 (3) mm^3. Further, the “T − C” value in data set [5] (XT26 100 mg/kg ip bid × 28, vs Group 1 vehicle) came to 4.5 days. In data set [5] (setting [7]), the “Regressions CR” value was 0, the “Regressions PR” value was determined as 0 and the “Regressions TFS” value is 0. For the same molecule, in data set [5] (setting [8]), the “% TGD” value is 13% and the “T − C” value turned out to be 2.5 days. The “Median TTE” value in data set [5] (XT26 200 mg/kg ip bid × 8, then qd on Days 17, 18, 20-28, n = 9) stood at 21.2 days. Moreover, the “MTV (n) Day 28” value in data set [5] (XT26 200 mg/kg ip bid × 8, then qd, animals not at endpoint (n in brackets), 200 mg/kg) is 527 mm^3 and 527 (1) mm^3. For the same molecule, the “Median survival” value in data set [5] (XT26 ip bid × 28, 100 mg/kg (Column B = treated group)) is 23.25. Besides, the “survival advantage relative to the vehicle treatment” value in data set [5] (discontinuous 200 mg/kg XT26 therapy, five mice remaining after D10) is “little or no survival advantages”.
